Data set [1] in a line: solubility in aqueous media. It is filed as physicochemical. The source says:
Therefore it is not straightforward or easy to formulate it into pharmaceutical compositions, e.g. for oral administration.

Data set [2] is described as follows: stability in the solid state (heat, heat/humidity, light). It is filed as physicochemical. Particulars: after one week at 80° C. in a close container, or at 80° C./75% r.h. in open container, or upon exposure to light (1200 kLux, 300-800 nm). The source says:
Criteria for selecting the salts of the invention include i) dissolution in water, with measurement of degradation products, and decoloration, ii) stability against heat in solid state, iii) exposure to light (e.g. Xenon light), iv) corosivity to steel.

Consider `CN1CCN(c2nc(C3=C(c4c[nH]c5ccccc45)C(=O)NC3=O)c3ccccc3n2)CC1` [free base, 3-(1.H.-indol-3-yl)-4-[2-(4-methyl-piperazin-1-yl)-quinazolin-4-yl]-pyrrole-2,5-dione], for which the “solubility in aqueous media” value in data set [1] is on record as “relatively low solubility”.
For `CN1CCN(c2nc(C3=C(c4c[nH]c5ccccc45)C(=O)NC3=O)c3ccccc3n2)CC1.O=C(O)/C=C\C(=O)O` [maleate, Maleate Salt of 3-(1.H.-indol-3-yl)-4-[2-(4-methyl-piperazin-1-yl)-quinazolin-4-yl]-pyrrole-2,5-dione], the “stability in the solid state” value in data set [2] is listed as “very good stability”.
Turning to `CN1CCN(c2nc(C3=C(c4c[nH]c5ccccc45)C(=O)NC3=O)c3ccccc3n2)CC1.CS(=O)(=O)O` [mesylate salt, Mesylate Salt of 3-(1.H.-indol-3-yl)-4-[2-(4-methyl-piperazin-1-yl)-quinazolin-4-yl]-pyrrole-2,5-dione], in data set [2], the “stability in the solid state” value is given as “very good stability”.

These data come from US20120053184A1, “SALTS OF 3-(1H-IND0L-3-YL)-4-[2-(4-METHYL-PIPERAZIN-I-YL)-QUINAZOLIN-4-YL]-PYRROLE-2, 5-DI ONE” (priority 2007, published 2012).
